Data as given in US20220272990A1, “Methods and Compositions of the Botanical Extract to Promote and Boost Plant Growth and Prevent and Suppress Plant Diseases” (priority 2019, published 2022).

Key:
[1] = system: Fusarium graminearum; format: cell-based; conditions: thyme, yarrow extracts; 35% ethanol
[2] = system: Xanthomonas campestris; test: Burkholder's spot bioassay on carpet of bacteria; format: cell-based
[3] = system: Pathogenic Salmonella (S1); test: Burkholder's spot bioassay on carpet of bacteria; format: cell-based; conditions: Salmonella spp. (SL1); composition 2% + thymol 1:512, or single dose of thymol 1:512
[4] = system: Env. Salmonella (S22); test: Burkholder's spot bioassay on carpet of bacteria; format: cell-based; conditions: Salmonella spp. (S22); composition 2% + thymol 1:512, or single dose of thymol 1:512
Protocol: Referring now to FIGS. 26A to 26C, environmental Salmonella (S22) treated with thyme, yarrow, the botanical composition and control (C) are shown. […] A determined volume of (i.e. 10 μl) dissolved extract from each concentration is spotted on carpet of bacteria.

[5] = system: Salmonella (S31); test: Burkholder's spot bioassay on carpet of bacteria; format: cell-based; conditions: Salmonella spp. (S531); composition 2% + thymol 1:512, or single dose of thymol 1:512
Source text: Referring now to FIG. 28, Salmonella (S31—mungbean sprout isolate) treated with thyme is shown.

[6] = system: Aspergillus ochraceus; test: Antifungal and MIC spot assay on carpet of fungi; conditions: composition 1% + thymol 1:768, or thymol 1:768 alone

SMILES | inhibition of spore germination [1] | antimicrobial effectiveness [2] | antimicrobial effectiveness [3] | antimicrobial effectiveness [4] | antimicrobial effectiveness [5] | antifungal effectiveness on growth [6]
CCO [35% ethanol, ethanol] | complete inhibition |  |  |  |  | 
Cc1ccc(C(C)C)c(O)c1 [thymol] |  | not effective | not effective | not effective | not effective | not effective
